Assay results published in patent US10173968B2, “Bishydrazone-based antifungal agents” (University of Kentucky Research Foundation, priority 2016, dated 2019).
In brackets after ≈: the same amount, converted by molar mass.

Tests used:
Assay in all cases: Antifungal MIC, CLSI M27-A3 microbroth dilution
Assay type in all cases: cell-based, Candida albicans
C. albicans ATCC 1003 = conditions: C. albicans ATCC 1003
Experimental: (§1) In vitro MIC testing was performed according to the CLSI M27-A3 standard microbroth dilution methodology for the susceptibility testing of yeasts with minor modifications.

C. albicans ATCC 1237 = conditions: C. albicans ATCC 1237, resistant to FLC, ITC, and VOR
Experimental: as §1

C. albicans ATCC 90819 = conditions: C. albicans ATCC 90819, resistant to FLC, ITC, and VOR
Experimental: as §1

C. albicans ATCC 2310 = conditions: C. albicans ATCC 2310, susceptible to FLC, ITC, and VOR
Experimental: as §1

C. albicans ATCC 64124 = conditions: C. albicans ATCC 64124, resistant to FLC, ITC, and VOR
Experimental: as §1

C. albicans ATCC 2876 = conditions: C. albicans ATCC 2876, susceptible to FLC, ITC, and VOR
Experimental: as §1

C. albicans ATCC 10231 = conditions: C. albicans ATCC 10231, resistant to FLC, ITC, and VOR
Experimental: as §1

C[C@@H]1[C@H](O)[C@@H](C)/C=C/C=C/C=C/C=C/C=C/C=C/C=C/[C@H](O[C@@H]2O[C@H](C)[C@@H](O)[C@H](N)[C@@H]2O)C[C@@H]2O[C@](O)(C[C@@H](O)C[C@@H](O)[C@H](O)CC[C@@H](O)C[C@@H](O)CC(=O)O[C@H]1C)C[C@H](O)[C@H]2C(=O)O [AmB, amphotericin B, reference compound]
MIC (C. albicans ATCC 1003; converted from μg/mL): (4.2) μM
MIC (C. albicans ATCC 1003; range 0.5 to […]): 3.9 µg/mL (≈ 4.22 µM)
MIC (C. albicans ATCC 1237): 3.9 µg/mL (≈ 4.22 µM)
MIC (C. albicans ATCC 1237; converted from μg/mL): (4.2) μM
MIC (C. albicans ATCC 90819): 2.0 µg/mL (≈ 2.16 µM)
MIC (C. albicans ATCC 90819; converted from μg/mL): (2.1) μM
MIC (C. albicans ATCC 2310): 3.9 µg/mL (≈ 4.22 µM)
MIC (C. albicans ATCC 2310; converted from μg/mL): (4.2) μM
MIC (C. albicans ATCC 64124): 2.0 to 3.9 µg/mL
MIC (C. albicans ATCC 64124; converted from μg/mL): (2.1-4.2) μM
MIC (C. albicans ATCC 2876): 3.9 µg/mL (≈ 4.22 µM)
MIC (C. albicans ATCC 2876; converted from μg/mL): (4.2) μM
MIC (C. albicans ATCC 10231): 3.9 µg/mL (≈ 4.22 µM)
MIC (C. albicans ATCC 10231; converted from μg/mL): (4.2) μM
